According to article PMC4351868 (Cancer chemotherapy and pharmacology, 2012):
Read-outs that look alike come from different tables or passages of the source.

How the values were obtained:
recurrent glioblastoma [1] = settings: glioblastoma patients; erlotinib in combination with temsirolimus; cited from earlier work
[2] = human, in vivo
[3] = Serum pharmacokinetics of AEE788 and its metabolite AQM674
[4] = assay type: in vivo, human; settings: for Serum concentration / Tumor concentration / concentration at 12 h: approximately 12 hours after 8th AEE788 (250 mg) dose; for concentration at 12 h: serum, Serum concentration
[5] = Safety assessment: adverse events; assay type: in vivo
recurrent glioblastoma [6] = assay: Efficacy: tumor response; assay type: in vivo, human; settings: for Median PFS: dose expansion phase
recurrent glioblastoma [7] = assay: FLT-PET and DCE-/DSC-/DWI-MRI pharmacodynamic imaging; assay type: in vivo, human
[8] = temsirolimus combined with sorafenib; 9 of 19 patients; cited from earlier work

C#Cc1cccc(Nc2ncnc3cc(OCCOC)c(OCCOC)cc23)c1 [erlotinib]
6-month PFS (recurrent glioblastoma [1]): 12.5%
PR (recurrent glioblastoma [1]): none

C[C@@H](Nc1ncnc2[nH]c(-c3ccc(CN4CCNCC4)cc3)cc12)c1ccccc1 [AQM674]
exposure on day 15 relative to day 1 [2]: ~3 fold
time of maximum serum concentration after administration, on average [2]: 4.6 h
fold range in exposure over an 11-fold range in doses (50–550 mg) ([3]; Group A): 20 fold
effect of EIACD on overall exposure / concentrations ([3]; Group B (EIACD) vs Group A): reduced
accumulation after daily (q 24 h) administration versus a single dose ([3]; human, in vivo): 2-8 times
PK steady state reached ([3]; once-daily dosing): ≤ 15 days
Serum concentration ([4]; Patient 1): 20.6 ng/mL
Tumor concentration ([4]; Patient 1): 196.7 ng/mL
Serum concentration ([4]; Patient 2): 22.8 ng/mL
Tumor concentration ([4]; Patient 2): 411.2 ng/mL
Serum concentration ([4]; Patient 3): 31.3 ng/mL
Tumor concentration ([4]; Patient 3): 299.5 ng/mL
Serum concentration ([4]; Patient 4): 22.8 ng/mL
Tumor concentration ([4]; Patient 4): 93.9 ng/mL

CCN1CCN(Cc2ccc(-c3cc4c(N[C@H](C)c5ccccc5)ncnc4[nH]3)cc2)CC1 [AEE788]
deaths within 28 days of last dose of AEE788 ([5]; Group A): 4 deaths
Treatment discontinuation due to death ([5]; Group A, of 26 patients): 2 (7.7) n (%)
Treatment discontinuation due to death ([5]; Group B, of 14 patients): 0 (0) n (%)
deaths during AEE788 therapy ([5]; all disease progression): Three
hepatotoxicity (at least grade 2 AST or ALT elevations), patients ([5]; human, in vivo): 27%
patients who discontinued because of SAEs ([5]; human, in vivo): 17%
patients who discontinued treatment because of AEs ([5]; human, in vivo): 28%
patients with grade 3/4 AST or ALT elevations ([5]; human, in vivo): 22%
patients reporting at least one AE ([5]; in vivo): All patients
relationship between higher AEE788 dose levels and AST or ALT abnormalities ([5]; in vivo): No relationship
overall best response: SD for > 3 cycles, patients (recurrent glioblastoma [6]; 6 of 36 patients): 17%
Treatment discontinuation due to progressive disease (recurrent glioblastoma [6]; Group A, of 26 patients): 18 (69.2) n (%)
Treatment discontinuation due to progressive disease (recurrent glioblastoma [6]; Group B, of 14 patients): 11 (78.6) n (%)
complete or partial response (recurrent glioblastoma [6]; all patients): No CR or PR
Median PFS (recurrent glioblastoma [6]; Group A): 2.7 (90% CI: 1.9, 2.8) months
Median PFS (recurrent glioblastoma [6]; Group B): 1.6 (90% CI: 0.2, 2.6) months
disease progression causing treatment discontinuation, patients (recurrent glioblastoma [6]; dose-escalation EIACD group, all dose levels (11 patients)): 78.6%
disease progression causing treatment discontinuation, patients (recurrent glioblastoma [6]; dose-escalation non-EIACD group, all dose levels (18 patients)): 69.2%
disease progression causing treatment discontinuation, patients (recurrent glioblastoma [6]; dose-expansion Arm 1, all dose levels (5 patients)): 71.4%
disease progression causing treatment discontinuation, patients (recurrent glioblastoma [6]; dose-expansion Arm 2, all dose levels (10 patients)): 58.8%
PK steady state reached [2]: ≤ 15 days
accumulation after daily (q 24 h) administration versus a single dose [2]: 2-8 times
effect of EIACD on overall exposure / concentrations [2]: reduced
exposure of Group B patients at 600 mg relative to Group A patients at 550 mg [2]: half
fold range in exposure over an 11-fold range in doses (50–550 mg) [2]: 52 fold
mean coefficient of variation in AUC0–24 [2]: 67%
range of coefficient of variation in AUC0–24 [2]: 47-102%
exposure on day 15 relative to day 1 ([2]; 15 day): approximately 4.5 fold
change in FLT-PET parameters (recurrent glioblastoma [7]; FLT-PET in 6 patients (250, 400, 600 mg)): one patient experienced a significant decrease in PET parameters
pharmacodynamic effects based on FLT-PET and/or MRI analyses (recurrent glioblastoma [7]; any dose level): no significant pharmacodynamic effects
Tmax ([3]; human, serum, oral): 5 h
half-life ([3]; human, serum, oral): > 1440 min
AUC(0-t) ([3]; human, serum, oral, 50 mg/day): 82 ng·h/mL
Cmax ([3]; human, serum, oral, 50 mg/day): 7.7 ng/mL
Tmax ([3]; human, serum, oral, 50 mg/day): 3 h
AUC(0-t) ([3]; human, serum, oral, 100 mg/day): 168 ng·h/mL
Cmax ([3]; human, serum, oral, 100 mg/day): 12.7 ng/mL
Tmax ([3]; human, serum, oral, 100 mg/day): 4.3 h
AUC(0-t) ([3]; human, serum, oral, 200 mg/day): 189 ng·h/mL
Cmax ([3]; human, serum, oral, 200 mg/day): 8.2 ng/mL
Tmax ([3]; human, serum, oral, 200 mg/day): 9 h
AUC(0-t) ([3]; human, serum, oral, 250 mg/day): 1440 ng·h/mL
Cmax ([3]; human, serum, oral, 250 mg/day): 74.5 ng/mL
Tmax ([3]; human, serum, oral, 250 mg/day): 5.9 h
AUC(0-t) ([3]; human, serum, oral, 300 mg/day): 628 ng·h/mL
Cmax ([3]; human, serum, oral, 300 mg/day): 55.2 ng/mL
Tmax ([3]; human, serum, oral, 300 mg/day): 4.9 h
AUC(0-t) ([3]; human, serum, oral, 400 mg/day): 1150 ng·h/mL
Cmax ([3]; human, serum, oral, 400 mg/day): 77.1 ng/mL
Tmax ([3]; human, serum, oral, 400 mg/day): 6.7 h
AUC(0-t) ([3]; human, serum, oral, 450 mg/day): 3000 ng·h/mL
Cmax ([3]; human, serum, oral, 450 mg/day): 148 ng/mL
Tmax ([3]; human, serum, oral, 450 mg/day): 11 h
AUC(0-t) ([3]; human, serum, oral, 550 mg/day): 4300 ng·h/mL
Cmax ([3]; human, serum, oral, 550 mg/day): 234 ng/mL
Tmax ([3]; human, serum, oral, 550 mg/day): 12.5 h
AUC(0-t) ([3]; human, serum, oral, 600 mg/day): 730 ng·h/mL
Cmax ([3]; human, serum, oral, 600 mg/day): 71.8 ng/mL
Tmax ([3]; human, serum, oral, 600 mg/day): 3.7 h
AUC(0-t) ([3]; human, serum, oral, 800 mg/day): 1460 ng·h/mL
Cmax ([3]; human, serum, oral, 800 mg/day): 95.2 ng/mL
Tmax ([3]; human, serum, oral, 800 mg/day): 3 h
Kp ([4]; human, glioblastoma tumor / plasma, oral, 250 mg): 14 to 59
concentration at 12 h ([4]; human, oral, 250 mg, Patient 1): 57.3 ng/mL
concentration at 12 h ([4]; human, oral, 250 mg, Patient 2): 41.9 ng/mL
concentration at 12 h ([4]; human, oral, 250 mg, Patient 3): 141 ng/mL
concentration at 12 h ([4]; human, oral, 250 mg, Patient 4): 110 ng/mL

CO[C@H]1C[C@@H]2CC[C@@H](C)[C@@](O)(O2)C(=O)C(=O)N2CCCC[C@H]2C(=O)O[C@H]([C@H](C)C[C@@H]2CC[C@@H](OC(=O)C(C)(CO)CO)[C@H](OC)C2)CC(=O)[C@H](C)/C=C(\C)[C@@H](O)[C@@H](OC)C(=O)[C@H](C)C[C@H](C)/C=C/C=C/C=C/1C [temsirolimus]
grade 3 thrombocytopenia, patients [8]: 47%
